Test results: ChEMBL document CHEMBL1201862, “PubChem BioAssay data set” (2004)
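All cell lines were grown in 96-well plates and treated with compound for 48 hours. GI50 = concentration required for 50% inhibition of growth.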 Activity calls are given as the source filed them. Rule as the data show it: active = GI50 up to about 1.1 µM and inactive = higher.

What was measured:
Assay in all cases: NCI tumour cell line growth inhibition, 48 h
[1] = tested on: A549
[2] = tested on: CAKI-1
[3] = tested on: COLO 205
[4] = tested on: EKVX
[5] = tested on: HCT-15
[6] = tested on: Hs-578T
[7] = tested on: LOX IMVI
[8] = tested on: MCF7
[9] = tested on: MDA-MB-231
[10] = tested on: Malme-3M
[11] = tested on: OVCAR-4
[12] = tested on: OVCAR-8
[13] = tested on: SF-268
[14] = tested on: SF-295
[15] = tested on: SF-539
[16] = tested on: SK-MEL-28
[17] = tested on: SN12C
[18] = tested on: SNB-19
[19] = tested on: TK-10
[20] = tested on: UO-31

Compound | GI50 [1] | GI50 [2] | GI50 [3] | GI50 [4] | GI50 [5] [nM] | GI50 [6] | GI50 [7] | GI50 [8] | GI50 [9] | GI50 [10] | GI50 [11] | GI50 [12] | GI50 [13] | GI50 [14] | GI50 [15] | GI50 [16] | GI50 [17] | GI50 [18] | GI50 [19] | GI50 [20]
Fc1ccc(C(OCCN2CCC3CCC(C2)N3C/C=C/c2cccs2)c2ccc(F)cc2)cc1 (stereo not given) | 11000 nM (inactive) | 10200 nM (inactive) | 1960 nM (inactive) | 4410 nM (inactive) | 4060 | 12100 nM (inactive) | 6380 nM (inactive) | 7690 nM (inactive) | 9310 nM (inactive) | 6030 nM (inactive) | 7360 nM (inactive) | 4060 nM (inactive) | 12200 nM (inactive) | 10500 nM (inactive) | 10600 nM (inactive) | 6470 nM (inactive) | 5690 nM (inactive) | 13900 nM (inactive) | 11100 nM (inactive) | 12000 nM (inactive)
COc1cc2c(cc1OC)[C@H]1CN3CCC[C@H]3C=C1c1ccc(OC)c(O)c1-2 | 0.598 nM (active) | < 0.1 nM (active) | 0.6 nM (active) | 0.883 nM (active) | 0.549 | 1.92 nM (active) | 0.329 nM (active) | 4.04 nM (active) | 3.78 nM (active) | 0.608 nM (active) | 0.31 nM (active) | 0.557 nM (active) | 0.819 nM (active) | < 0.1 nM (active) | 0.711 nM (active) | 0.6 nM (active) | 0.531 nM (active) | < 0.1 nM (active) | 0.998 nM (active) | 0.959 nM (active)
C/C(=N\O)c1ccc(Nc2c3ccccc3nc3occc23)cc1 | 263 nM (active) | 231 nM (active) | 156 nM (active) | 5820 nM (inactive) | 126 | 352 nM (active) | 290 nM (active) | 180 nM (active) | 900 nM (active) | 11500 nM (inactive) | 762 nM (active) | 531 nM (active) | 514 nM (active) | 151 nM (active) | 169 nM (active) | 659 nM (active) | 1440 nM (inactive) | 603 nM (active) | 1170 nM (inactive) | 3490 nM (inactive)
